According to US9193736B2, “PDE 10a inhibitors for the treatment of type II diabetes” (Janssen Pharmaceutica, NV, priority 2013, dated 2015):
Structures can show the parent of a compound that is named as a salt.

Assays:
[1] = biological target: Rat recombinant PDE10a (rPDE10a) (Rattus norvegicus (Rat), UniProt Q9QYJ6); assay: In vitro assay PDE10a: rat recombinant PDE10a SPA with 3H-cAMP substrate, IC50; assay type: biochemical; conditions: 60 nM cAMP, read-out: rPDE10a2 IC50
Protocol: In Vitro Assay PDE10a Rat recombinant PDE10a (rPDE10a) was expressed in Sf9 cells using a recombinant rPDE10a baculovirus construct. Cells were harvested after 48 h of infection and the rPDE10a protein was purified by metal chelate chromatography on Ni-sepharose 6FF. Tested compounds were dissolved and diluted in 100% DMSO to a concentration 100 fold of the final concentration in the assay. […] The reaction was incubated for 60 min at rt. After incubation, the reaction was stopped with 20 μL of 17.8 mg/mL PDE SPA beads. […] For blank values the enzyme was omitted from the reaction and replaced by incubation buffer.

[2] = biological target: Human recombinant PDE10A2 (Homo sapiens (Human), UniProt Q9Y233); assay: In vitro hPDE10a: human recombinant PDE10A2 scintillation proximity assay, IC50; assay type: biochemical; conditions: human recombinant PDE10A2, SPA, 60 nM cAMP; read-out: hPDE10a2 IC50
Human recombinant PDE10A2, sequence (Q9Y233 267-1055): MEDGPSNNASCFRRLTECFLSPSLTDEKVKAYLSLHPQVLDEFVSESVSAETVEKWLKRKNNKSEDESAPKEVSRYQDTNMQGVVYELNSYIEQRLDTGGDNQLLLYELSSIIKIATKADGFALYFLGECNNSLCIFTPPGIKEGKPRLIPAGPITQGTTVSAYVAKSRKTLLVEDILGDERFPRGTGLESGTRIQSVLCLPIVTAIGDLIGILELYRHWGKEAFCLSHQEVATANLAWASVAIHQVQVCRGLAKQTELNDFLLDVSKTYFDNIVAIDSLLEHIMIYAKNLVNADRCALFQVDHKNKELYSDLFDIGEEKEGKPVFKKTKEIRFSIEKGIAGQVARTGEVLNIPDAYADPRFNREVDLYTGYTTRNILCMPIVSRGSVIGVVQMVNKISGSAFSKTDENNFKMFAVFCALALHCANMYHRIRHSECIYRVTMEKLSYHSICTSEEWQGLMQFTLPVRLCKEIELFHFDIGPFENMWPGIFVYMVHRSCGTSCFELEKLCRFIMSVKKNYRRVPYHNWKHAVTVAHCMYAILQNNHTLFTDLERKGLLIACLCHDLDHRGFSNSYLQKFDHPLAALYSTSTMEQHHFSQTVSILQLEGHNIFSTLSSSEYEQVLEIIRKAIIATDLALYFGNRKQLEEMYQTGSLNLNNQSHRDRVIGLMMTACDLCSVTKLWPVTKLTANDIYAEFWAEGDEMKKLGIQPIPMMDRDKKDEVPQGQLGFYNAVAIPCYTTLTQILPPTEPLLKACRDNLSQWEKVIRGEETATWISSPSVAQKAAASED
Protocol: Cells were harvested and the phosphodiesterase protein was purified by metal chelate chromatography on Ni-sepharose 6FF. The affinity of the compounds of Formula (I) for phophodiesterases (PDE) was measured by a scintillation proximity assay (SPA). PDE Yttrium Silicate SPA beads allow PDE activity to be measured by direct binding of the primary phosphate groups of non-cyclic AMP or GMP to the beads via a complex iron chelation mechanism. The amount of bound tritiated product ([^3H]-AMP) is measured by liquid scintillation counting. The compounds were dissolved and diluted in 100% DMSO in polystyrene plates to a concentration of 100-fold the final concentration in the assay. […] After incubation, the reaction was stopped with 20 μL of stop solution, consisting of PDE SPA beads (17.8 mg beads/mL in 18 mM zinc sulphate). […] To measure the low control, no enzyme was added to the reaction mixture. Data were calculated as the percentage of inhibition of total activity measured in the absence of test compound (% control). […] For compounds tested more than once, the data points were aggregated.

Rat recombinant PDE10a (rPDE10a), sequence (Q9QYJ6 whole entry): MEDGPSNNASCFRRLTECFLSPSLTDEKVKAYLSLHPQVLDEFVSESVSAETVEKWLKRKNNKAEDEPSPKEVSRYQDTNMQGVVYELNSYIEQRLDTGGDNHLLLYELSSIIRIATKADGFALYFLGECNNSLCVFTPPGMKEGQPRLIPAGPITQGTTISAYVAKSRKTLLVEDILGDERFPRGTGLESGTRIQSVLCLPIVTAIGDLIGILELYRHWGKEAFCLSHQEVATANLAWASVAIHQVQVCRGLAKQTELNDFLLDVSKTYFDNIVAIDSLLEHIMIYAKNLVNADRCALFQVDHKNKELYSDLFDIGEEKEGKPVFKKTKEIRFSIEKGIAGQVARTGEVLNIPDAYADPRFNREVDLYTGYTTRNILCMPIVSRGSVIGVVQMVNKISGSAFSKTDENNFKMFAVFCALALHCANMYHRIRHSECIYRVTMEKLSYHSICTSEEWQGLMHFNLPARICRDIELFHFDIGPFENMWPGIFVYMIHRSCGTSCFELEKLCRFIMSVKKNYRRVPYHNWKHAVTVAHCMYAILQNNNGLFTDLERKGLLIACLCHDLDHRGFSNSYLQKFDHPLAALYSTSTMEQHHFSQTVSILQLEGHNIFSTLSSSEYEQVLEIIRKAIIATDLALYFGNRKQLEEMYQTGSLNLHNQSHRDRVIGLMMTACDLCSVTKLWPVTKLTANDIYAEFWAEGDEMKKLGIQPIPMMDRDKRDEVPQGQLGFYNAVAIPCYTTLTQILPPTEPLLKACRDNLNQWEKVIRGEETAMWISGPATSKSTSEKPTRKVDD

In the case of `O=C(O)c1ccc(-c2c(/C=C/c3ccc4ccccc4n3)nc3c(N4CCOCC4)ccnn23)s1` [Cpd 57, (E)-5-(8-Morpholino-2-(2-(quinolin-2-yl)vinyl)imidazo[1,2-b]pyridazin-3-yl)thiophene-2-carboxylic acid], the IC50 [1] is reported as 1 nM and the IC50 [2] is reported as 1 nM.
Work on `CC(C)[C@H](NC(=O)c1ccc(-c2c(CCc3ccc4ccccc4n3)nc3c(N4CCOCC4)ccnn23)cc1)C(=O)O` [Cpd 75, N-({4-[8-Morpholin-4-yl-2-(2-quinolin-2-ylethyl)imidazo[1,2-b]pyridazin-3-yl]phenyl}carbonyl)-L-valine] yielded an IC50 [1] of 7 nM and an IC50 [2] of 4 nM.
With `CS(=O)(=O)NC(=O)c1cccc2nc(/C=C/c3nc4c(N5CCOCC5)cc(Cl)nn4c3-c3cccnc3)ccc12` [Cpd 141, (E)-2-(2-(6-Chloro-8-morpholino-3-(pyridin-3-yl)imidazo[1,2-b]pyridazin-2-yl)vinyl)-N-(methylsulfonyl)quinoline-5-carboxamide] the IC50 [1] was 23 nM and the IC50 [2] was 58 nM.
`O=C(O)CCC(=O)Nc1ccc(-c2c(CCc3ccc4ccccc4n3)nc3c(N4CCOCC4)ccnn23)cc1` [compound 49, 4-((4-(8-Morpholino-2-(2-(quinolin-2-yl)ethyl)imidazo[1,2-b]pyridazin-3-yl)phenyl)amino)-4-oxobutanoic acid] was tested, and the IC50 [1] was 4 nM and the IC50 [2] was 4 nM.
`COc1cc(/C=C/c2nc3c(N4CCOCC4)ccnn3c2-c2ccc(C(=O)O)cc2)nc2ccccc12` [Cpd 135, 4-{2-[(E)-2-(4-Methoxyquinolin-2-yl)ethenyl]-8-morpholin-4-ylimidazo[1,2-b]pyridazin-3-yl}benzoic acid] showed an IC50 [1] of 10 nM and an IC50 [2] of 6 nM.
Work on `OC(c1ccc(-c2c(CCc3ccc4ccccc4n3)nc3c(N4CCOCC4)ccnn23)cc1)(C(F)(F)F)C(F)(F)F` [compound 53, 1,1,1,3,3,3-Hexafluoro-2-(4-(8-morpholino-2-(2-(quinolin-2-yl)ethyl)imidazo[1,2-b]pyridazin-3-yl)phenyl)propan-2-ol] yielded an IC50 [1] of 33 nM and an IC50 [2] of 41 nM.
`O=C(O)c1ccc(-c2c(/C=C/c3ccc4ccccc4n3)nc3c(N4CCOCC4)ccnn23)cn1` [compound 92, (E)-5-(8-Morpholino-2-(2-(quinolin-2-yl)vinyl)imidazo[1,2-b]pyridazin-3-yl)picolinic acid] gave an IC50 [1] of 5 nM and an IC50 [2] of 4 nM.
Work on `O=C(O)CC1CCN(c2c(/C=C/c3ccc4ccccc4n3)nc3c(N4CCOCC4)ccnn23)CC1` [Cpd 156, (E)-2-(1-(8-Morpholino-2-(2-(quinolin-2-yl)vinyl)imidazo[1,2-b]pyridazin-3-yl)piperidin-4-yl)acetic acid] yielded an IC50 [1] of 7 nM and an IC50 [2] of 7 nM.
With `O=c1[nH]c(-c2ccc(-c3c(COc4ccc5ccccc5n4)nc4c(N5CCOCC5)ccnn34)cn2)no1` [Cpd 35, 3-(5-(8-Morpholino-2-((quinolin-2-yloxy)methyl)imidazo[1,2-b]pyridazin-3-yl)pyridin-2-yl)-1,2,4-oxadiazol-5(4H)-one] the IC50 [1] was 7 nM and the IC50 [2] was 5 nM.
Compound `Oc1c(F)cc(-c2c(CCc3ccc4ccccc4n3)nc3c(N4CCOCC4)ccnn23)cc1F` [compound 81, 2,6-Difluoro-4-(8-morpholino-2-(2-(quinolin-2-yl)ethyl)imidazo[1,2-b]pyridazin-3-yl)phenol] has an IC50 [1] of 4 nM and an IC50 [2] of 1 nM.
`CS(=O)(=O)NC(=O)c1cccc2nc(/C=C/c3cn4nc(Cl)cc(N5CCOCC5)c4n3)ccc12` [Cpd 104, 2-[(E)-2-(6-Chloro-8-morpholin-4-ylimidazo[1,2-b]pyridazin-2-yl)ethenyl]-N-(methylsulfonyl)quinoline-5-carboxamide] gave an IC50 [1] of 8 nM and an IC50 [2] of 3 nM.
`O=C(O)c1ccc(Nc2c(/C=C/c3ccc4ccccc4n3)nc3c(N4CCOCC4)ccnn23)cc1` [Cpd 138, (E)-4-((8-Morpholino-2-(2-(quinolin-2-yl)vinyl)imidazo[1,2-b]pyridazin-3-yl)amino)benzoic acid] showed an IC50 [1] of 2 nM and an IC50 [2] of 5 nM.
`CC(C)[C@H](NC(=O)c1ccc(-c2c(/C=C/c3ccc4ccccc4n3)nc3c(N4CCOCC4)ccnn23)cc1)C(=O)O` [Cpd 73, (S,E)-3-Methyl-2-(4-(8-morpholino-2-(2-(quinolin-2-yl)vinyl)imidazo[1,2-b]pyridazin-3-yl)benzamido)butanoic acid trifluoroacetic acid salt] gave an IC50 [1] of 7 nM and an IC50 [2] of 8 nM.
Work on `O=C(O)CNC(=O)c1ccc(-c2c(CCc3ccc4ccccc4n3)nc3c(N4CCOCC4)ccnn23)cc1` [Cpd 68, 2-(4-(8-Morpholino-2-(2-(quinolin-2-yl)ethyl)imidazo[1,2-b]pyridazin-3-yl)benzamido)acetic acid trifluoroacetic acid salt] yielded an IC50 [1] of 6 nM and an IC50 [2] of 5 nM.
With `c1ccc2nc(NCc3nc4c(N5CCOCC5)ccnn4c3-c3ccc(N4CCNCC4)nc3)ccc2c1` [Cpd 4, N-((8-Morpholino-3-(6-(piperazin-1-yl)pyridin-3-yl)imidazo[1,2-b]pyridazin-2-yl)methyl)quinolin-2-amine trifluoroacetic acid salt] the IC50 [1] was 200 nM and the IC50 [2] was 155 nM.
With `O=c1[nH]nnn1-c1ccc(-c2c(CCc3ccc4ccccc4n3)nc3c(N4CCOCC4)ccnn23)cc1` [Cpd 62, 1-(4-(8-Morpholino-2-(2-(quinolin-2-yl)ethyl)imidazo[1,2-b]pyridazin-3-yl)phenyl)-1H-tetrazol-5(4H)-one] the IC50 [1] was 9 nM and the IC50 [2] was 4 nM.
With `O=c1[nH]c(-c2ccc(-c3c(CCc4ccc5ccccc5n4)nc4c(N5CCOCC5)ccnn34)cn2)no1` [Cpd 37, 3-(5-(8-Morpholino-2-(2-(quinolin-2-yl)ethyl)imidazo[1,2-b]pyridazin-3-yl)pyridin-2-yl)-1,2,4-oxadiazol-5(4H)-one] the IC50 [1] was < 1 nM and the IC50 [2] was 1 nM.
`c1ccc2nc(CNc3nc4c(N5CCOCC5)ccnn4c3-c3ccc(N4CCNCC4)nc3)ccc2c1` [Cpd 11, 8-Morpholino-3-(6-(piperazin-1-yl)pyridin-3-yl)-N-(quinolin-2-ylmethyl)imidazo[1,2-b]pyridazin-2-amine trifluoroacetic acid salt] gave an IC50 [1] of 25 nM and an IC50 [2] of 55 nM.
For `C(=C\c1nc2c(N3CCOCC3)ccnn2c1-c1ccc(-c2nnn[nH]2)nc1)/c1ccc2ccccc2n1` [Cpd 19, 2-[(E)-2-{8-Morpholin-4-yl-3-[6-(1H-tetrazol-5-yl)pyridin-3-yl]imidazo[1,2-b]pyridazin-2-yl}ethenyl]quinoline], the IC50 [1] was 3 nM and the IC50 [2] was 2 nM.
In the case of `CS(=O)(=O)NC(=O)CCc1ccc(-c2c(/C=C/c3ccc4ccccc4n3)nc3c(N4CCOCC4)ccnn23)cn1` [Cpd 129, (E)-N-(Methylsulfonyl)-3-(5-(8-morpholino-2-(2-(quinolin-2-yl)vinyl)imidazo[1,2-b]pyridazin-3-yl)pyridin-2-yl)propanamide trifluoroacetic acid salt], the IC50 [1] is reported as 6 nM and the IC50 [2] is reported as 2 nM.
`CS(=O)(=O)Nc1ccc(-c2c(CCc3ccc4ccccc4n3)nc3c(N4CCOCC4)ccnn23)cc1` [compound 45, N-(4-(8-Morpholino-2-(2-(quinolin-2-yl)ethyl)imidazo[1,2-b]pyridazin-3-yl)phenyl)methanesulfonamide] showed an IC50 [1] of 5 nM and an IC50 [2] of 8 nM.
`c1cncc(-c2c(COc3ccc4ccccc4n3)nc3c(N4CCOCC4)ccnn23)c1` [Cpd 2, 4-(3-(pyridin-3-yl)-2-((quinolin-2-yloxy)methyl)imidazo[1,2-b]pyridazin-8-yl)morpholine] gave an IC50 [1] of 141 nM and an IC50 [2] of 245 nM.
`O=C1NC(=O)C(c2ccc(-c3c(CCc4ccc5ccccc5n4)nc4c(N5CCOCC5)ccnn34)cc2)O1` (stereo not drawn) [Cpd 70, 5-(4-(8-Morpholino-2-(2-(quinolin-2-yl)ethyl)imidazo[1,2-b]pyridazin-3-yl)phenyl)oxazolidine-2,4-dione] was tested, and the IC50 [1] was 7 nM and the IC50 [2] was 4 nM.
Compound `O=c1ncn(-c2ccc(-c3c(CCc4ccc5ccccc5n4)nc4c(N5CCOCC5)ccnn34)cc2)[nH]1` [Cpd 59, 1-(4-(8-Morpholino-2-(2-(quinolin-2-yl)ethyl)imidazo[1,2-b]pyridazin-3-yl)phenyl)-1,2-dihydro-1,2,4-triazol-3-one trifluoroacetic acid salt] has an IC50 [1] of 6 nM and an IC50 [2] of 5 nM.
`COc1cc2ccccc2nc1/C=C/c1nc2c(N3CCOCC3)ccnn2c1-c1ccc(C(=O)O)cc1` [Cpd 119, (E)-4-(2-(2-(3-Methoxyquinolin-2-yl)vinyl)-8-morpholinoimidazo[1,2-b]pyridazin-3-yl)benzoic acid] was tested, and the IC50 [1] was 6 nM and the IC50 [2] was 6 nM.
For `O=C(O)c1cc2ccccc2nc1/C=C/c1cn2nccc(N3CCOCC3)c2n1` [Cpd 144, 2-[(E)-2-(8-Morpholin-4-ylimidazo[1,2-b]pyridazin-2-yl)ethenyl]quinoline-3-carboxylic acid], the IC50 [1] was < 1 nM and the IC50 [2] was < 1 nM.
`O=C(O)c1ccc(-c2c(C#Cc3ccccn3)nc3c(N4CCOCC4)ccnn23)cc1` [Cpd 86, 4-(8-Morpholino-2-(pyridin-2-ylethynyl)imidazo[1,2-b]pyridazin-3-yl)benzoic acid] was tested, and the IC50 [1] was 2 nM and the IC50 [2] was 2 nM.
